# Results from publication PMC5218480 (PLoS ONE, 2017).
# System: MV-4-11 cells
# Experiment: Gene expression microarray analysis (Affymetrix PrimeView) and GSEA
# Assay type: cell-based, human
# Design: RFU PODN (11730768_x_at) / Fold change /veh PODN (11730768_x_at) / RFU LINC00158 (11744669_a_at) / Fold change /veh LINC00158 (11744669_a_at) / RFU DUSP10 (11751237_a_at) / Fold change /veh DUSP10 (11751237_a_at) / RFU ID3 (11757404_x_at) / Fold change /veh ID3 (11757404_x_at) / RFU PLEKHG5 (11737974_s_at) / Fold change /veh PLEKHG5 (11737974_s_at) / RFU LRRC4B (11730491_at) / Fold change /veh LRRC4B (11730491_at) / RFU GIMAP4 (11747438_a_at) / Fold change /veh GIMAP4 (11747438_a_at) / RFU KRT8 (11758183_x_at) / Fold change /veh KRT8 (11758183_x_at) / RFU CNN1 (11734310_a_at) / Fold change /veh CNN1 (11734310_a_at) / RFU VPS37D (11726825_at) / Fold change /veh VPS37D (11726825_at) / RFU C10orf10 (11716522_x_at) / Fold change /veh C10orf10 (11716522_x_at) / RFU KIR2DL2 /// KIR2DL4 /// KIR2DL5A /// KIR2DL5B /// KIR2DS1 /// KIR2DS2 /// KIR2DS3 /// KIR2DS4 /// KIR3DL3 /// KIR3DL3 /// KIR3DS1 (11738374_at) / Fold change /veh KIR2DL2 /// KIR2DL4 /// KIR2DL5A /// KIR2DL5B /// KIR2DS1 /// KIR2DS2 /// KIR2DS3 /// KIR2DS4 /// KIR3DL3 /// KIR3DL3 /// KIR3DS1 (11738374_at) / RFU C1QL1 (11718748_at) / Fold change /veh C1QL1 (11718748_at) / RFU TMPRSS4 (11747572_a_at) / Fold change /veh TMPRSS4 (11747572_a_at) / RFU HAMP (11756126_x_at) / Fold change /veh HAMP (11756126_x_at) / RFU RNFT2 (11725882_a_at) / Fold change /veh RNFT2 (11725882_a_at) / RFU NR4A2 (11747474_a_at) / Fold change /veh NR4A2 (11747474_a_at) / RFU ABCC12 (11746883_a_at) / Fold change /veh ABCC12 (11746883_a_at) / RFU TMEM136 (11760407_x_at) / Fold change /veh TMEM136 (11760407_x_at) / RFU CLDN22 /// WWC2 (11732394_at) / Fold change /veh CLDN22 /// WWC2 (11732394_at) / RFU HLA-DPB1 (11760878_x_at) / Fold change /veh HLA-DPB1 (11760878_x_at) / RFU SPINT1 (11716480_a_at) / Fold change /veh SPINT1 (11716480_a_at) / RFU GAP43 (11754022_s_at) / Fold change /veh GAP43 (11754022_s_at) / RFU A4GNT (11735810_at) / Fold change /veh A4GNT (11735810_at) / RFU PRB3 (11715151_x_at) / Fold change /veh PRB3 (11715151_x_at) / RFU TUBB4B (11761932_at) / Fold change /veh TUBB4B (11761932_at) / RFU CAPN14 (11732068_a_at) / Fold change /veh CAPN14 (11732068_a_at) / RFU TMCC2 (11721928_a_at) / Fold change /veh TMCC2 (11721928_a_at) / RFU IRGQ (11745062_a_at) / Fold change /veh IRGQ (11745062_a_at) / RFU FAM174B (11720279_a_at) / Fold change /veh FAM174B (11720279_a_at) / RFU TMPRSS4 (11748680_a_at) / Fold change /veh TMPRSS4 (11748680_a_at) / RFU FAM212B (11763350_a_at) / Fold change /veh FAM212B (11763350_a_at) / RFU PLEKHG5 (11743358_a_at) / Fold change /veh PLEKHG5 (11743358_a_at) / RFU ZSCAN30 (11745921_a_at) / Fold change /veh ZSCAN30 (11745921_a_at) / RFU CMKLR1 (11741424_a_at) / Fold change /veh CMKLR1 (11741424_a_at) / RFU LOC101060620 /// MAPK8IP1 (11723275_at) / Fold change /veh LOC101060620 /// MAPK8IP1 (11723275_at) / RFU SPTSSB (11747773_x_at) / Fold change /veh SPTSSB (11747773_x_at) / RFU PRSS12 (11739890_at) / Fold change /veh PRSS12 (11739890_at) / RFU BIN1 (11741810_x_at) / Fold change /veh BIN1 (11741810_x_at) / RFU WNT11 (11732464_a_at) / Fold change /veh WNT11 (11732464_a_at) / RFU C10orf10 (11716521_a_at) / Fold change /veh C10orf10 (11716521_a_at) / RFU C5orf56 (11738089_at) / Fold change /veh C5orf56 (11738089_at) / RFU CYB561 (11721691_x_at) / Fold change /veh CYB561 (11721691_x_at) / RFU ANKRD19P (11752326_a_at) / Fold change /veh ANKRD19P (11752326_a_at) / RFU OR2T12 /// OR2T33 /// OR2T8 (11738714_s_at) / Fold change /veh OR2T12 /// OR2T33 /// OR2T8 (11738714_s_at) / RFU VCAN (11748164_a_at) / Fold change /veh VCAN (11748164_a_at) / RFU JSRP1 (11732532_at) / Fold change /veh JSRP1 (11732532_at) / RFU KRTAP10-11 (11738290_x_at) / Fold change /veh KRTAP10-11 (11738290_x_at) / RFU MYO3A (11730013_a_at) / Fold change /veh MYO3A (11730013_a_at) / RFU EBF3 (11725865_a_at) / Fold change /veh EBF3 (11725865_a_at) / RFU CAMK2N1 (11719241_x_at) / Fold change /veh CAMK2N1 (11719241_x_at) / RFU C5orf56 (11738088_a_at) / Fold change /veh C5orf56 (11738088_a_at) / RFU OLFML3 (11715873_a_at) / Fold change /veh OLFML3 (11715873_a_at) / RFU LOC100653217 /// NTM (11731650_a_at) / Fold change /veh LOC100653217 /// NTM (11731650_a_at) / RFU MAPK11 (11762145_a_at) / Fold change /veh MAPK11 (11762145_a_at) / RFU FIZ1 (11724087_x_at) / Fold change /veh FIZ1 (11724087_x_at) / RFU OASL (11726364_x_at) / Fold change /veh OASL (11726364_x_at) / RFU SOX15 (11748057_x_at) / Fold change /veh SOX15 (11748057_x_at) / RFU CD79A (11719716_a_at) / Fold change /veh CD79A (11719716_a_at) / RFU HIST1H1D (11736915_at) / Fold change /veh HIST1H1D (11736915_at) / RFU CASKIN2 (11723855_a_at) / Fold change /veh CASKIN2 (11723855_a_at) / RFU LOC730098 (11760151_x_at) / Fold change /veh LOC730098 (11760151_x_at) / RFU OR4N2 (11742367_at) / Fold change /veh OR4N2 (11742367_at) / RFU PRRT2 (11749266_a_at) / Fold change /veh PRRT2 (11749266_a_at) / RFU SNX32 (11753110_a_at) / Fold change /veh SNX32 (11753110_a_at) / RFU CDHR5 (11726645_a_at) / Fold change /veh CDHR5 (11726645_a_at) / RFU RCAN1 (11760418_a_at) / Fold change /veh RCAN1 (11760418_a_at) / RFU FAM167A (11723789_a_at) / Fold change /veh FAM167A (11723789_a_at) / RFU FAM26E (11764081_at) / Fold change /veh FAM26E (11764081_at) / RFU ISYNA1 (11749810_s_at) / Fold change /veh ISYNA1 (11749810_s_at) / RFU ACY1 (11761880_at) / Fold change /veh ACY1 (11761880_at) / RFU 11764098_at / Fold change /veh 11764098_at / RFU SAMD14 (11745864_x_at) / Fold change /veh SAMD14 (11745864_x_at) / RFU NPB (11741838_a_at) / Fold change /veh NPB (11741838_a_at) / RFU TMPRSS6 (11731388_a_at) / Fold change /veh TMPRSS6 (11731388_a_at) / RFU KRTAP10-2 (11738614_at) / Fold change /veh KRTAP10-2 (11738614_at) / RFU ARHGAP8 /// PRR5-ARHGAP8 (11727945_x_at) / Fold change /veh ARHGAP8 /// PRR5-ARHGAP8 (11727945_x_at) / RFU KRTAP5-7 /// NADSYN1 (11734609_at) / Fold change /veh KRTAP5-7 /// NADSYN1 (11734609_at) / RFU RASL12 (11751679_a_at) / Fold change /veh RASL12 (11751679_a_at) / RFU CDKN2B (11736163_a_at) / Fold change /veh CDKN2B (11736163_a_at) / RFU PRF1 (11729649_at) / Fold change /veh PRF1 (11729649_at) / RFU, ZNF638 /// ZNF638-IT1 / Fold change vs veh, ZNF638 /// ZNF638-IT1 / RFU, PANK3 / Fold change vs veh, PANK3 / RFU, SH3YL1 / Fold change vs veh, SH3YL1 / RFU, ZEB2 / Fold change vs veh, ZEB2 / RFU, NRIP1 / Fold change vs veh, NRIP1 / RFU, PTTG1IP / Fold change vs veh, PTTG1IP / RFU, CAPN2 / Fold change vs veh, CAPN2 / RFU, MED14 / Fold change vs veh, MED14 / RFU, SNORA58 / Fold change vs veh, SNORA58 / RFU, C1orf63 / Fold change vs veh, C1orf63 / RFU, LRRFIP1 / Fold change vs veh, LRRFIP1 / RFU, NDUFAF7 / Fold change vs veh, NDUFAF7 / RFU, SLC12A2 / Fold change vs veh, SLC12A2 / RFU, IBTK / Fold change vs veh, IBTK / RFU, ESF1 / Fold change vs veh, ESF1 / Fold change vs veh, TMEM50B / RFU, TAOK1 / Fold change vs veh, TAOK1 / RFU, ACBD3 / Fold change vs veh, ACBD3 / RFU, TMA16 / Fold change vs veh, TMA16 / RFU, RWDD3 / Fold change vs veh, RWDD3 / RFU, BCAT1 / Fold change vs veh, BCAT1 / RFU, EDEM3 / Fold change vs veh, EDEM3 / RFU, TMEM33 / Fold change vs veh, TMEM33 / RFU, WDR75 / Fold change vs veh, WDR75 / RFU, AHCTF1 / Fold change vs veh, AHCTF1 / RFU, TFRC / Fold change vs veh, TFRC / RFU, ZDHHC17 / Fold change vs veh, ZDHHC17 / RFU, NOM1 / Fold change vs veh, NOM1 / RFU, ARL8B / Fold change vs veh, ARL8B / RFU, ZBTB11 / Fold change vs veh, ZBTB11 / RFU, TAMM41 / Fold change vs veh, TAMM41 / RFU, KIAA1704 /// LOC100996395 / Fold change vs veh, KIAA1704 /// LOC100996395 / RFU, ING1 / Fold change vs veh, ING1 / RFU, TRMT61B / Fold change vs veh, TRMT61B / RFU, FUBP3 / Fold change vs veh, FUBP3 / RFU, TP53 / Fold change vs veh, TP53 / RFU, TNKS2 / Fold change vs veh, TNKS2 / RFU, ZFP14 / Fold change vs veh, ZFP14 / RFU, ACTR2 / Fold change vs veh, ACTR2 / RFU, PPP3R1 / Fold change vs veh, PPP3R1 / RFU, PIK3R1 / Fold change vs veh, PIK3R1 / RFU, HNRNPA1 / Fold change vs veh, HNRNPA1 / RFU, RNF170 / Fold change vs veh, RNF170 / RFU, ZNF28 / Fold change vs veh, ZNF28 / RFU, RNGTT / Fold change vs veh, RNGTT / RFU, OGT / Fold change vs veh, OGT / RFU, BRD1 / Fold change vs veh, BRD1 / RFU, MARS / Fold change vs veh, MARS / RFU, ZNF655 / Fold change vs veh, ZNF655 / RFU, FAHD1 / Fold change vs veh, FAHD1 / RFU, BDP1 / Fold change vs veh, BDP1 / RFU, LRRCC1 / Fold change vs veh, LRRCC1 / RFU, ARID1A / Fold change vs veh, ARID1A / RFU, ZNF146 / Fold change vs veh, ZNF146 / RFU, ZNF330 / Fold change vs veh, ZNF330 / RFU, GPN3 / Fold change vs veh, GPN3 / RFU, C9orf123 / Fold change vs veh, C9orf123 / RFU, N4BP2L2 / Fold change vs veh, N4BP2L2 / RFU, ARFIP1 / Fold change vs veh, ARFIP1 / RFU, FAM179B / Fold change vs veh, FAM179B / RFU, BCL10 / Fold change vs veh, BCL10 / RFU, UHRF1BP1L / Fold change vs veh, UHRF1BP1L / RFU, BET1 / Fold change vs veh, BET1 / RFU, CNOT2 / Fold change vs veh, CNOT2 / RFU, ZNF268 / Fold change vs veh, ZNF268 / Fold change vs veh, ZNF507 / RFU, DGCR2 / Fold change vs veh, DGCR2 / RFU, WDSUB1 / Fold change vs veh, WDSUB1 / Fold change vs veh, HSP90B1 /// MIR3652 / RFU, ADSS / Fold change vs veh, ADSS / RFU, GK / Fold change vs veh, GK / RFU, ZNF148 / Fold change vs veh, ZNF148 / RFU, TAF9 / Fold change vs veh, TAF9 / RFU, SLC1A5 / Fold change vs veh, SLC1A5 / RFU, SLMO2 / Fold change vs veh, SLMO2 / RFU, ABCC4 / Fold change vs veh, ABCC4 / RFU, LOC101060439 /// RAP1B / Fold change vs veh, LOC101060439 /// RAP1B / RFU, RFX7 / Fold change vs veh, RFX7 / RFU, GTPBP10 / Fold change vs veh, GTPBP10 / RFU, CNEP1R1 / Fold change vs veh, CNEP1R1 / RFU, BIVM-ERCC5 /// ERCC5 / Fold change vs veh, BIVM-ERCC5 /// ERCC5 / RFU, ILF3 / Fold change vs veh, ILF3 / RFU 11762660_at / Fold change /veh 11762660_at / RFU VCAN (11757783_s_at) / Fold change /veh VCAN (11757783_s_at) / RFU DDX43 (11728927_at) / Fold change /veh DDX43 (11728927_at) / RFU KRT8 (11758188_x_at) / Fold change /veh KRT8 (11758188_x_at) / RFU NKD1 (11759106_at) / Fold change /veh NKD1 (11759106_at) / RFU SRD5A1 (11742802_a_at) / Fold change /veh SRD5A1 (11742802_a_at) / RFU TPSAB1 /// TPSB2 (11721975_s_at) / Fold change /veh TPSAB1 /// TPSB2 (11721975_s_at) / RFU GSTM3 (11746129_a_at) / Fold change /veh GSTM3 (11746129_a_at) / RFU IL23R (11737362_x_at) / Fold change /veh IL23R (11737362_x_at) / RFU TMEM51 (11727254_a_at) / Fold change /veh TMEM51 (11727254_a_at) / RFU PIWIL2 (11732686_x_at) / Fold change /veh PIWIL2 (11732686_x_at) / RFU ORM1 (11744905_x_at) / Fold change /veh ORM1 (11744905_x_at) / RFU CCDC152 (11743942_at) / Fold change /veh CCDC152 (11743942_at) / RFU ECM1 (11717891_a_at) / Fold change /veh ECM1 (11717891_a_at) / RFU IL23R (11748794_a_at) / Fold change /veh IL23R (11748794_a_at) / RFU TNFAIP8L3 (11732012_x_at) / Fold change /veh TNFAIP8L3 (11732012_x_at) / RFU MBOAT4 (11741988_at) / Fold change /veh MBOAT4 (11741988_at) / RFU 11764193_at / Fold change /veh 11764193_at / RFU TMEM53 (11763286_at) / Fold change /veh TMEM53 (11763286_at) / RFU MAGEB2 (11727129_at) / Fold change /veh MAGEB2 (11727129_at) / RFU TMEM200A (11744735_a_at) / Fold change /veh TMEM200A (11744735_a_at) / RFU CCDC152 (11751479_a_at) / Fold change /veh CCDC152 (11751479_a_at) / RFU FAM211A (11726209_a_at) / Fold change /veh FAM211A (11726209_a_at) / RFU RGS16 (11746705_a_at) / Fold change /veh RGS16 (11746705_a_at) / RFU VCAN (11755009_s_at) / Fold change /veh VCAN (11755009_s_at) / RFU RHOB (11743442_s_at) / Fold change /veh RHOB (11743442_s_at) / RFU RGS16 (11720943_a_at) / Fold change /veh RGS16 (11720943_a_at) / RFU RGS16 (11720944_at) / Fold change /veh RGS16 (11720944_at) / RFU, VPS4B / Fold change vs veh, VPS4B / RFU, CREB1 / Fold change vs veh, CREB1 / RFU, DNAJC13 / Fold change vs veh, DNAJC13 / RFU, GNAQ / Fold change vs veh, GNAQ / RFU, CDK5R1 / Fold change vs veh, CDK5R1 / RFU, ZRANB3 / Fold change vs veh, ZRANB3 / RFU, CUL4A / Fold change vs veh, CUL4A / RFU, CCNY / Fold change vs veh, CCNY / RFU, UFL1 / Fold change vs veh, UFL1 / RFU, COG3 / Fold change vs veh, COG3 / RFU, DIAPH2 / Fold change vs veh, DIAPH2 / RFU, SKA2 / Fold change vs veh, SKA2 / RFU, AFF3 / Fold change vs veh, AFF3 / RFU, LMF1 / Fold change vs veh, LMF1 / RFU, IPO11 / Fold change vs veh, IPO11 / RFU, DFFB / Fold change vs veh, DFFB / RFU, FOXP1 / Fold change vs veh, FOXP1 / RFU, CARD8 / Fold change vs veh, CARD8 / RFU, STRN3 / Fold change vs veh, STRN3 / RFU, ADK / Fold change vs veh, ADK / RFU, RASSF2 / Fold change vs veh, RASSF2 / RFU, WIPF1 / Fold change vs veh, WIPF1 / RFU, LARP1B / Fold change vs veh, LARP1B / RFU, RASA1 / Fold change vs veh, RASA1 / RFU, RB1 / Fold change vs veh, RB1 / RFU, PPFIA1 / Fold change vs veh, PPFIA1 / RFU, MAT2A / Fold change vs veh, MAT2A / RFU, CCT5 / Fold change vs veh, CCT5 / RFU, WDR92 / Fold change vs veh, WDR92 / RFU, CUX1 / Fold change vs veh, CUX1 / RFU, TTC7A / Fold change vs veh, TTC7A / RFU, TMEM135 / Fold change vs veh, TMEM135 / RFU, DEPTOR / Fold change vs veh, DEPTOR / RFU, CPM / Fold change vs veh, CPM / RFU, DNAJB6 / Fold change vs veh, DNAJB6 / RFU, CACNA2D3 / Fold change vs veh, CACNA2D3 / RFU, DTX4 / Fold change vs veh, DTX4 / RFU, TFCP2 / Fold change vs veh, TFCP2 / RFU, GMCL1 /// GMCL1P1 / Fold change vs veh, GMCL1 /// GMCL1P1 / RFU, AEBP2 / Fold change vs veh, AEBP2 / RFU, SNHG1 /// SNORD22 /// SNORD25 /// SNORD26 /// SNORD27 /// SNORD28 /// SNORD29 /// SNORD31 / Fold change vs veh, SNHG1 /// SNORD22 /// SNORD25 /// SNORD26 /// SNORD27 /// SNORD28 /// SNORD29 /// SNORD31 / Fold change (Aza/veh), C12orf56 (ProbeSet 11735607_a_at) / Fold change (ACY-1035/veh), C12orf56 (ProbeSet 11735607_a_at) / Fold change (Aza/veh), FGFR1OP (ProbeSet 11751329_s_at) / Fold change (ACY-1035/veh), FGFR1OP (ProbeSet 11751329_s_at) / Fold change (Aza/veh), VPS36 (ProbeSet 11739960_a_at) / Fold change (ACY-1035/veh), VPS36 (ProbeSet 11739960_a_at) / RFU SYPL1 (11715823_x_at) / Fold change /veh SYPL1 (11715823_x_at) / RFU IGFBP7 (11715501_s_at) / Fold change /veh IGFBP7 (11715501_s_at) / RFU REEP3 (11722064_at) / Fold change /veh REEP3 (11722064_at) / RFU IGLL1 (11728026_x_at) / Fold change /veh IGLL1 (11728026_x_at): dose or concentration left out as unconfirmed
# Settings: ProbeSet 11760938_a_at; LIST D
structure (smiles),measurement,value
Nc1ncn([C@@H]2O[C@H](CO)[C@@H](O)[C@H]2O)c(=O)n1 [azacitidine],"Fold change vs veh, MAT2A",0.66
